Values after ≈ are worked out from the molar mass of the structure shown.
Columns and labels:
[1] = tested on: P-388 murine leukemia cell line; settings: cited from earlier work; for IC50 against the P-388 murine leukemia cell line: mycalamides, J. Nat. Prod. 2000, 63, 704
MDA-MB-231 = test: SRB colorimetric cytotoxicity assay, MDA-MB-231; type: cell-based, human; settings: MDA-MB-231, 72 hours treatment; for GI50 / LC50 (concentration giving 50% net cell killing): Homo sapiens; for GI50: 50% cell growth inhibition; for TGI: total cell growth inhibition
Text: (§1) The aim of this assay is to evaluate the in vitro cytostatic (ability to delay or arrest tumor cell growth) or cytotoxic (ability to kill tumor cells) activity of the samples being tested.
(§2) A colorimetric assay, using sulforhodamine B (SRB) reaction has been adapted to provide a quantitative measurement of cell growth and viability (following the technique described by Skehan et al. J. Natl. Cancer Inst. 1990, 82, 1107-1112).
(§3) This form of assay employs 96-well cell culture microplates following the standards of the American National Standards Institute and the Society for Laboratory Automation and Screening (ANSI SLAS 1-2004 (R2012) 10/12/2011). All the cell lines used in this study were obtained from the American Type Culture Collection (ATCC) and derive from different types of human cancer.
(§4) Cells were maintained in Dulbecco's Modified Eagle Medium (DMEM) supplemented with 10% Fetal Bovine Serum (FBS), 2mM L-glutamine, 100 U/mL penicillin and 100 U/mL streptomycin at 37 ° C., 5% CO2 and 98% humidity. For the experiments, cells were harvested from subconfluent cultures using trypsinization and resuspended in fresh medium before counting and plating.
(§5) Cells were seeded in 96 well microtiter plates, at 5000 cells per well in aliquots of 150 μL and allowed to attach to the plate surface for 18 hours (overnight) in drug free medium. After that, one control (untreated) plate of each cell line was fixed (as described below) and used for time zero reference value. Culture plates were then treated with test compounds (50 μL aliquots of 4× stock solutions in complete culture medium plus 4% DMSO) using ten 2/5 serial dilutions (concentrations ranging from 10 to 0.003 μg/mL) and triplicate cultures (1% final concentration in DMSO). After 72 hours treatment, the antitumor effect was measured by using the SRB methodology: Briefly, cells were washed twice with PBS, fixed for 15 min in 1% glutaraldehyde solution at room temperature, rinsed twice in PBS, and stained in 0.4% SRB solution for 30 min at room temperature. Cells were then rinsed several times with 1% acetic acid solution and air-dried at room temperature. SRB was then extracted in 10 mM trizma base solution and the absorbance measured in an automated spectrophotometric plate reader at 490 nm. Effects on cell growth and survival were estimated by applying the NCI algorithm (Boyd M R and Paull K D. Drug Dev. Res. 1995, 34, 91-104).
(§6) The values obtained in triplicate cultures were fitted to a four-parameter logistic curve by nonlinear regression analysis. Three reference parameters were calculated (according to the NCI algorithm) by automatic interpolation of the curves obtained from such fitting: GI50=compound concentration that produces 50% cell growth inhibition, as compared to control cultures; TGI=total cell growth inhibition (cytostatic effect), as compared to control cultures, and LC50=compound concentration that produces 50% net cell killing cytotoxic effect).

HT29 = test: SRB colorimetric cytotoxicity assay, HT29; type: cell-based, human; settings: for TGI: HT29, 72 hours treatment, total cell growth inhibition; for GI50 / CC50: Homo sapiens, HT-29, HT29, 72 hours treatment; for GI50: 50% cell growth inhibition; for CC50: 50% net cell killing, read-out: LC50 (the source's name)
Text: as §1, §2, §3, §4, §5, §6

A549 = test: SRB colorimetric cytotoxicity assay, A549; type: cell-based, human; settings: A549, 72 hours treatment; for TGI: total cell growth inhibition; for GI50 / CC50: Homo sapiens; for GI50: 50% cell growth inhibition; for CC50: 50% net cell killing, read-out: LC50 (the source's name)
Text: as §1, §2, §3, §4, §5, §6

PSN-1 = test: SRB colorimetric cytotoxicity assay, PSN1; type: cell-based, human; settings: for GI50 / CC50: Homo sapiens, PSN1, PSN-1, 72 hours treatment; for GI50: 50% cell growth inhibition; for CC50: 50% net cell killing, read-out: LC50 (the source's name); for TGI: PSN-1, 72 hours treatment, total cell growth inhibition
Text: as §1, §2, §3, §4, §5, §6

[2] = toxicity lower than pederin; cited from earlier work
HeLa cells = settings: cited from earlier work
B104 cells = settings: cited from earlier work
[3] = tested on: EUE, E6D, HeLa, KB, Hep, AS, MEF, CE, BHK, Z1 and M1 cell lines; settings: within four days, in all the cell lines analyzed; cited from earlier work

Question: For `C=C1C[C@](OC)([C@H](O)C(=O)NC[C@H]2O[C@H](CO)C(C)(C)[C@H](O)[C@H]2O)O[C@H](C)[C@@H]1C` [Mycalamide C], which “IC50 against the P-388 murine leukemia cell line” value [1] is on record?
Answer: 95.0 ng/mL (≈ 228 nM)

Question: With `C=C1CC(OC)(C(O)C(=O)NC(OC)C2CC(O)C(C)(C)C(CC(CO)OC)O2)OC(C)C1C` (stereo not shown) [Compound 1] as the compound, how does the GI50 (MDA-MB-231) read?
Answer: 0.00266 µM

Question: And the LC50 (concentration giving 50% net cell killing) (MDA-MB-231)?
Answer: 0.0108 µM

Question: And the TGI (MDA-MB-231)?
Answer: 0.00531 µM

Question: What about the TGI (HT29) of the same compound?
Answer: 0.00899 µM

Question: What about the GI50 (HT29) of the same compound?
Answer: 0.00286 µM

Question: What about the CC50 (HT29) of the same compound?
Answer: > 0.204 µM

Question: And the TGI (A549)?
Answer: 0.00797 µM

Question: What about the GI50 (A549) of the same compound?
Answer: 0.00204 µM

Question: And the CC50 (A549)?
Answer: 0.0368 µM

Question: What about the GI50 (PSN-1) of the same compound?
Answer: 0.00266 µM

Question: What about the CC50 (PSN-1) of the same compound?
Answer: 0.0194 µM

Question: And the TGI (PSN-1)?
Answer: 0.00572 µM

Question: For `C=C1C[C@](O)([C@H](O)C(=O)N[C@@H](OC)[C@@H]2C[C@@H](O)C(C)(C)[C@@H](C[C@@H](COC)OC)O2)O[C@H](C)[C@@H]1C` [Pseudopederin, pseudopederin], which “active dose relative to pederin” value [2] is on record?
Answer: 10 times higher

Question: With `C=C1C[C@](OC)([C@H](O)C(=O)N[C@@H](O)[C@@H]2C[C@@H](O)C(C)(C)[C@@H](C[C@H](O)CO)O2)O[C@H](C)[C@@H]1C` [diaphorin] as the compound, how does the IC50 (HeLa cells) read?
Answer: ~2 µM

Question: And the IC50 (B104 cells)?
Answer: ~1 µM

Question: With `C=C1C[C@](OC)([C@H](O)C(=O)N[C@H]2OCO[C@H]3[C@@H]2O[C@H](C[C@H](O)CO)C(C)(C)[C@@H]3OC)O[C@H](C)[C@@H]1C` [Mycalamide A] as the compound, how does the “IC50 against the P-388 murine leukemia cell line” value [1] read?
Answer: 3.0 ng/mL (≈ 5.96 nM)

Question: With `C=C1C[C@](OC)([C@H](O)C(=O)N[C@H]2OCO[C@H]3[C@@H]2O[C@H](CC(CO)OC)C(C)(C)[C@@H]3OC)O[C@H](C)[C@@H]1C` (stereo partly shown) [Mycalamide B] as the compound, how does the “IC50 against the P-388 murine leukemia cell line” value [1] read?
Answer: 0.7 ng/mL (≈ 1.35 nM)

Question: With `C=C1C[C@](OC)([C@H](O)C(=O)NC[C@@H]2C[C@H](O)C(C)(C)[C@@H](C[C@H](O)CCC/C=C/C=C/C=C/C(=O)N[C@@H](CCCNC(=N)N)C(=O)O)O2)O[C@H](C)[C@@H]1C` [Onnamide E] as the compound, how does the “cytotoxic activity against the P388 cell line” value ([1]; at a concentration of 0.4 μg/mL) read?
Answer: did not show cytotoxic activity

Question: With `C=C1C[C@](OC)([C@H](O)C(=O)N[C@H]2OCO[C@H]3[C@@H]2O[C@H](C[C@H](O)CCC/C=C/C=C/C=C/C(=O)N[C@@H](CCCNC(=N)N)C(=O)O)C(C)(C)[C@@H]3OC)O[C@H](C)[C@@H]1C` [Onnamide A] as the compound, how does the “IC50 against the murine P388 cell line” value ([1]; U.S. Pat. No. 4,801,606) read?
Answer: 1 ng/mL (≈ 1.26 nM)

Question: With `C=C1C[C@](OC)([C@H](O)C(=O)N[C@@H](OC)[C@@H]2C[C@@H](O)C(C)(C)[C@@H](CC(COC)OC)O2)O[C@H](C)[C@@H]1C` (stereo partly shown) [pederin] as the compound, how does the “concentration sufficient to cause cellular death” value [3] read?
Answer: ~3 nM

Question: Which “IC50 against the P-388 murine leukemia cell line” value [1] does the source give for `C=C1C[C@](OC)([C@H](O)C(=O)N[C@H]2OCO[C@H]3[C@@H]2O[C@H](C[C@H](O)CO)C(C)(C)[C@@H]3O)O[C@H](C)[C@@H]1C` [Mycalamide D] here?
Answer: 35 ng/mL (≈ 71.5 nM)

Question: What does the source list for `C=C1CC(OC)(C(OC(C)=O)C(=O)NC(OC)C2CC(OC(C)=O)C(C)(C)C(CC(COC(C)=O)OC)O2)OC(C)C1C` (stereo not shown) [Compound 3]?
Answer: GI50 (MDA-MB-231): 0.309 µM; LC50 (concentration giving 50% net cell killing) (MDA-MB-231): > 16.2 µM; TGI (MDA-MB-231): 2.44 µM; TGI (HT29): 0.926 µM; GI50 (HT29): 0.162 µM; CC50 (HT29): > 16.2 µM; TGI (A549): 0.877 µM; GI50 (A549): 0.115 µM; CC50 (A549): 8.61 µM; GI50 (PSN-1): 0.162 µM; CC50 (PSN-1): 3.9 µM; TGI (PSN-1): 0.666 µM

Question: Which results are given for `C=C1CC(OC)(C(O)C(=O)NC(OC)C2CC(O)C(C)(C)C(CC(O)CO)O2)OC(C)C1C` (stereo not shown) [Compound 2]?
Answer: GI50 (MDA-MB-231): 0.0082 µM; LC50 (concentration giving 50% net cell killing) (MDA-MB-231): 0.0315 µM; TGI (MDA-MB-231): 0.0156 µM; TGI (HT29): 0.0442 µM; GI50 (HT29): 0.00883 µM; CC50 (HT29): > 2.1 µM; TGI (A549): 0.0252 µM; GI50 (A549): 0.00715 µM; CC50 (A549): 0.122 µM; GI50 (PSN-1): 0.00862 µM; CC50 (PSN-1): 0.0778 µM; TGI (PSN-1): 0.0191 µM

Reference: patent publication US20210317490A1, “ANTICANCER COMPOUNDS” (priority 2017, published 2021)
